From patent US20240294519A1, “PYRROLO[2,3-b]PYRIDINE PGDH INHIBITORS AND METHODS OF MAKING AND USING” (EPIRIUM BIO INC., priority 2021, published 2024)
Where “and” joins values, the source holds several entries; their conditions need not be identical. Identical values can stand only once.

Columns and labels:
15-PGDH = target: T1, 15-PGDH (Homo sapiens, UniProt P15428); test: A549 cell based assay: PGE2 in supernatant after IL-1β (HTRF); conditions: A549 cells, fold induction of PGE2, IL-1β plus test article versus IL-1β only
T1 construct: 15-PGDH is highly expressed in resting human lung adenocarcinoma cells (A549); endogenous in cells; host or cells: A549
T1 sequence (P15428 1-266): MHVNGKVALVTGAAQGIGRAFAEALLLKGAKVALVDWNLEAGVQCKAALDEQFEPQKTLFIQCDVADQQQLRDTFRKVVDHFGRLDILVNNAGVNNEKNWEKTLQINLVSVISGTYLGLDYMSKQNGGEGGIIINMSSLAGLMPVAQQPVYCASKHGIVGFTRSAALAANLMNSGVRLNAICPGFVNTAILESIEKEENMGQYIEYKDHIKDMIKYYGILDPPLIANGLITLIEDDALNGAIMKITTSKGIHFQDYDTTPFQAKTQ
Method: Cell Based Assay: 15-PGDH is highly expressed in resting human lung adenocarcinoma cells (A549) (Tong et al., 2006), and this cell line was used to assess 15-PGDH inhibition by MF-300Na in vitro.
In this assay, A549 cells are treated with interleukin (IL) 1β, which induces the expression of cycloxygenase-2 and the synthesis of PGE2 (Tong et al., 2006). In the studies evaluating test articles, thirty thousand A549 cells were seeded in 100 μL F12K completed media and incubated for 24 hours at 37° C. with 5% CO2 before being serum-starved for 24 hours. On the day of the experiment, buffer was changed to complete medium, and cells were incubated for 30 minutes with compounds prior to the addition of IL-1β (final concentration of 0.1-0.25 ng/mL) overnight at 37° C. with 5% CO2. Each concentration was run in triplicate. […] The PGE2 in the supernatant was detected and quantified using a Cisbio HTRF technology (Homogeneous Time-Resolved Fluorescence) kit (62P2APEG-62P2APEH) according to the manufacturer's recommendations, quantifying the fold induction of PGE2 of cells treated with IL-1β plus test article, versus treatment with IL-1β only.

15-PGDH/HPGD = target: T2, 15-PGDH/HPGD (Homo sapiens, UniProt P15428); test: hPGDH inhibitor screening biochemical assay; conditions: 10 nM enzyme, 15 μM PGE2, 0.25 mM NAD, fluorescence ex/em 340/485 nm
T2 construct: purchased R&D System 5660-DH
T2 sequence (P15428 1-266): T1 sequence (P15428 1-266)
Outline: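 Recombinant human 15-PGDH (10 nM) was preincubated with compound for 10 min at 37° C in 50 mM Tris-HCl pH 7.5 with 0.01% Tween 20. Reaction with 15 μM PGE2 and 0.25 mM NAD+ ran 10 min at room temperature, read by fluorescence at ex/em 340/485 nm. IC50 was derived from 10-point curves, relative to 1% DMSO.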

Structure (SMILES) | PGE2 - HTRF over IL-β induction at 0.001 μM (15-PGDH) | PGE2 - HTRF over IL-β induction at 0.01 μM (15-PGDH) | PGE2 - HTRF over IL-β induction at 0.1 μM (15-PGDH) | PGE2 - HTRF over IL-β induction at 1 μM (15-PGDH) | IC50 (15-PGDH/HPGD) [nM]
CC(C)OC(=O)Nc1cncc(-n2ccc3cc(C(=O)N4CCC(F)(F)CC4)cnc32)c1 [Compound B-88] | 2.14 | 3.77 | 3.25 | 4.67 | < 100
COC(=O)Nc1cncc(-n2ccc3cc(C(=O)N4CCCC(F)(F)C4)cnc32)c1 [Compound B-82] | 2.7 | 5.52 | 5.36 | 4.19 | < 100
O=C(Nc1cncc(-n2ccc3cc(C(=O)N4CCC(F)(F)CC4)cnc32)c1)C1CCOCC1 [Compound B-232] | 0.34 | 1.02 | 2.68 | 4.46 | < 100
CNc1nc2ccc(-n3ccc4cc(C(=O)N5CCC(F)(F)CC5)cnc43)cn2n1 [Compound B-89] | 1.57 | 3.31 | 3 | 5.13 | < 100
CCC1CCCN(C(=O)c2cnc3c(ccn3-c3cncc(NC(=O)OC)c3)c2)C1 (stereo not drawn) [Compound B-83] | 1.4 | 2.64 | 2.84 | 4.39 | < 100
CCC1CCCN(C(=O)c2cnc3c(ccn3-c3ccc(N4CCOC4=O)nc3)c2)C1 (stereo not drawn) [Compound B-113] | 6.05 | 3.06 | 8.74 | 10.7 | < 100
O=C(c1cnc2c(ccn2-c2ccc(-c3nnc(C4CC4)[nH]3)cc2)c1)N1CCC(F)(F)CC1 [Compound B-72] | 2.17 | 3.03 | 3.96 | 3.96 | < 100
O=C(c1cnc2c(ccn2-c2cccc(-c3nc[nH]n3)c2)c1)N1CCC(F)(F)CC1 [Compound B-36, (1-(3-(4H-1,2,4-triazol-3-yl)phenyl)-1H-pyrrolo[2,3-b]pyridin-5-yl)(4,4-difluoropiperidin-1-yl)methanone] | 2.93 | 4.16 | 3.31 | 4.33 | < 100
O=C(Nc1cncc(-n2ccc3cc(C(=O)N4CCC(F)(F)CC4)cnc32)c1)C1CCC1 [Compound B-236] | 1.63 | 3.57 | 6.46 | 8.32 | < 100
CN(C)c1nc2ccc(-n3ccc4cc(C(=O)N5CCC(F)(F)CC5)cnc43)cn2n1 [Compound B-102] | 0.95 | 1.08 | 3.09 | 5.02 | 100 to 1000
Cn1cc(C(=O)Nc2cncc(-n3ccc4cc(C(=O)N5CCC(F)(F)CC5)cnc43)c2)cn1 [Compound B-92] |  | 2.91 and 2.33 | 4.01 and 3.89 | 3.56 and 3.92 | < 100
O=C(Nc1cncc(-n2ccc3cc(C(=O)N4CCC(F)(F)CC4)cnc32)c1)C1CCCC1 [Compound B-234] | 0.70 | 4.01 | 4.06 | 3.42 | < 100
COC(=O)Nc1cncc(-n2ccc3cc(C(=O)N4CCCC(C(F)(F)F)C4)cnc32)c1 (stereo not drawn) [Compound B-84] | 1.94 | 3.38 | 4.02 | 5.76 | < 100
O=C(c1cnc2c(ccn2-c2ccc(N3CCOC3=O)nc2)c1)N1CCCC(C(F)(F)F)C1 (stereo not drawn) [Compound B-114] | 2.23 | 5.78 | 7.25 | 11.1 | < 100
